The NIST ThermoML archive (doi:10.1016/j.fluid.2014.10.002)
Where “and” joins values, the source holds several entries; their conditions need not be identical. Identical values can stand only once. Numbers after ± are expanded uncertainties.

Conditions: Liquid

## CCCCC(CC)COC(=O)c1ccc(C(=O)OCC(CC)CCCC)c(C(=O)OCC(CC)CCCC)c1 (stereo not given) [tris(2-ethylhexyl) trimellitate]
303.15 K, 980 kPa, Vibrating wire viscometry
  viscosity: 158.5 ± 5.1 mPa·s
303.15 K, 1030 kPa, Vibrating wire viscometry
  viscosity: 158.4 ± 5.1 mPa·s
303.15 K, 1080 kPa, Vibrating wire viscometry
  viscosity: 158.9 ± 5.1 mPa·s
303.15 K, 15060 kPa, Vibrating wire viscometry
  viscosity: 220.6 ± 7.7 mPa·s and 220.2 ± 7.7 mPa·s
303.15 K, 29810 kPa, Vibrating wire viscometry
  viscosity: 302.4 ± 12 mPa·s and 302.1 ± 12 mPa·s
303.15 K, 29820 kPa, Vibrating wire viscometry
  viscosity: 303.1 ± 12 mPa·s
303.16 K, 2820 kPa, Vibrating wire viscometry
  viscosity: 165 ± 5 mPa·s
303.16 K, 2850 kPa, Vibrating wire viscometry
  viscosity: 165.1 ± 5.4 mPa·s and 165.7 ± 5.4 mPa·s
303.16 K, 5120 kPa, Vibrating wire viscometry
  viscosity: 174.3 ± 5.7 mPa·s
303.16 K, 5130 kPa, Vibrating wire viscometry
  viscosity: 173.4 ± 5.7 mPa·s and 173.8 ± 5.7 mPa·s and 173.6 ± 5.7 mPa·s
303.16 K, 7680 kPa, Vibrating wire viscometry
  viscosity: 183.8 ± 6.1 mPa·s [middle of 4 runs]
303.16 K, 7690 kPa, Vibrating wire viscometry
  viscosity: 183.8 ± 6.1 mPa·s
303.16 K, 9830 kPa, Vibrating wire viscometry
  viscosity: 193.9 ± 6.6 mPa·s
303.16 K, 9850 kPa, Vibrating wire viscometry
  viscosity: 193.9 ± 6.6 mPa·s
303.16 K, 9880 kPa, Vibrating wire viscometry
  viscosity: 194.1 ± 6.6 mPa·s
303.16 K, 19950 kPa, Vibrating wire viscometry
  viscosity: 242.6 ± 8.8 mPa·s
303.16 K, 19980 kPa, Vibrating wire viscometry
  viscosity: 242.8 ± 8.8 mPa·s
303.16 K, 19990 kPa, Vibrating wire viscometry
  viscosity: 242.8 ± 8.8 mPa·s
303.16 K, 20010 kPa, Vibrating wire viscometry
  viscosity: 243.8 ± 8.8 mPa·s
303.16 K, 29820 kPa, Vibrating wire viscometry
  viscosity: 303.5 ± 12 mPa·s and 303.8 ± 12 mPa·s
303.16 K, 29830 kPa, Vibrating wire viscometry
  viscosity: 302.3 ± 12 mPa·s
303.16 K, 40160 kPa, Vibrating wire viscometry
  viscosity: 369.8 ± 16 mPa·s
303.16 K, 40170 kPa, Vibrating wire viscometry
  viscosity: 370.5 ± 16 mPa·s and 373.1 ± 16 mPa·s and 370.9 ± 16 mPa·s
303.16 K, 40180 kPa, Vibrating wire viscometry
  viscosity: 373.2 ± 16 mPa·s and 369.5 ± 16 mPa·s
303.17 K, 101.33 kPa, Capillary tube (Ostwald / Ubbelohde) method
  viscosity: 153.9 ± 3.6 mPa·s
303.17 K, 50390 kPa, Vibrating wire viscometry
  viscosity: 462.2 ± 21 mPa·s
303.17 K, 50400 kPa, Vibrating wire viscometry
  viscosity: 462.1 ± 21 mPa·s [middle of 4 runs]
313.16 K, 1220 kPa, Vibrating wire viscometry
  viscosity: 87.78 ± 2.6 mPa·s
313.16 K, 1230 kPa, Vibrating wire viscometry
  viscosity: 87.98 ± 2.6 mPa·s
313.16 K, 1310 kPa, Vibrating wire viscometry
  viscosity: 88.02 ± 2.6 mPa·s
313.16 K, 1320 kPa, Vibrating wire viscometry
  viscosity: 87.62 ± 2.6 mPa·s and 87.55 ± 2.6 mPa·s
313.16 K, 2780 kPa, Vibrating wire viscometry
  viscosity: 90.52 ± 2.6 mPa·s
313.16 K, 5160 kPa, Vibrating wire viscometry
  viscosity: 96.14 ± 2.7 mPa·s
313.16 K, 5170 kPa, Vibrating wire viscometry
  viscosity: 96.24 ± 2.7 mPa·s
313.16 K, 5190 kPa, Vibrating wire viscometry
  viscosity: 96.26 ± 2.8 mPa·s
313.16 K, 5210 kPa, Vibrating wire viscometry
  viscosity: 95.79 ± 2.7 mPa·s
313.16 K, 7710 kPa, Vibrating wire viscometry
  viscosity: 101.6 ± 2.9 mPa·s
313.16 K, 7780 kPa, Vibrating wire viscometry
  viscosity: 101.7 ± 2.9 mPa·s and 101.9 ± 2.9 mPa·s and 101.4 ± 2.9 mPa·s
313.16 K, 7790 kPa, Vibrating wire viscometry
  viscosity: 101.3 ± 2.9 mPa·s
313.16 K, 14800 kPa, Vibrating wire viscometry
  viscosity: 117.6 ± 3.5 mPa·s
313.16 K, 14820 kPa, Vibrating wire viscometry
  viscosity: 117.4 ± 3.5 mPa·s
313.16 K, 20040 kPa, Vibrating wire viscometry
  viscosity: 132.4 ± 4.1 mPa·s
313.16 K, 20050 kPa, Vibrating wire viscometry
  viscosity: 131.6 ± 4 mPa·s
313.16 K, 20060 kPa, Vibrating wire viscometry
  viscosity: 131.6 ± 4 mPa·s
313.16 K, 29930 kPa, Vibrating wire viscometry
  viscosity: 159.8 ± 5.1 mPa·s
313.16 K, 29970 kPa, Vibrating wire viscometry
  viscosity: 160.2 ± 5.2 mPa·s
313.16 K, 29980 kPa, Vibrating wire viscometry
  viscosity: 159.8 ± 5.1 mPa·s
313.16 K, 39960 kPa, Vibrating wire viscometry
  viscosity: 197.4 ± 6.7 mPa·s
313.16 K, 39980 kPa, Vibrating wire viscometry
  viscosity: 197 ± 7 mPa·s
313.16 K, 40000 kPa, Vibrating wire viscometry
  viscosity: 196.9 ± 6.7 mPa·s
313.16 K, 40020 kPa, Vibrating wire viscometry
  viscosity: 196.6 ± 6.7 mPa·s
313.16 K, 50020 kPa, Vibrating wire viscometry
  viscosity: 239.1 ± 8.6 mPa·s
313.16 K, 50040 kPa, Vibrating wire viscometry
  viscosity: 240.3 ± 8.7 mPa·s and 239.4 ± 8.6 mPa·s
313.16 K, 50070 kPa, Vibrating wire viscometry
  viscosity: 239.5 ± 8.6 mPa·s
313.16 K, 50080 kPa, Vibrating wire viscometry
  viscosity: 239.6 ± 8.6 mPa·s
313.16 K, 50090 kPa, Vibrating wire viscometry
  viscosity: 239.3 ± 8.6 mPa·s
313.16 K, 65420 kPa, Vibrating wire viscometry
  viscosity: 317.8 ± 13 mPa·s
313.16 K, 65430 kPa, Vibrating wire viscometry
  viscosity: 319 ± 13 mPa·s
313.16 K, 65440 kPa, Vibrating wire viscometry
  viscosity: 319.8 ± 13 mPa·s
313.16 K, 65470 kPa, Vibrating wire viscometry
  viscosity: 317.5 ± 13 mPa·s
313.17 K, 2780 kPa, Vibrating wire viscometry
  viscosity: 90.59 ± 2.6 mPa·s and 90.6 ± 2.6 mPa·s
313.17 K, 2790 kPa, Vibrating wire viscometry
  viscosity: 90.29 ± 2.5 mPa·s and 90.54 ± 2.6 mPa·s
313.17 K, 2800 kPa, Vibrating wire viscometry
  viscosity: 90.3 ± 2.5 mPa·s
313.17 K, 5170 kPa, Vibrating wire viscometry
  viscosity: 95.9 ± 2.7 mPa·s
313.17 K, 14770 kPa, Vibrating wire viscometry
  viscosity: 117 ± 4 mPa·s
